# Assay results published in patent publication US20030171329A1, “Stable compositions comprising tezacitabine” (priority 2002, published 2003).
# Key:
# [1] = Stability of FMdC at various concentrations in 100 mM sodium phosphate pH 9 (Example 3, HPLC); assay type: physicochemical
# Protocol: In this study the stability of FMdC at various concentrations in 100 mM sodium phosphate pH 9 was studied. FMdC solutions were made up and pH adjusted to target with sodium hydroxide. Solution samples were placed in stoppered glass vials and stored at the various temperatures. […] Flow rate was 1.0 mL/min. FMdC solution samples were diluted in mobile phase to a nominal FMdC concentration of 80 μg/mL, then injected onto the column in a volume of 10 μL. Detection was by UV at 268 nm.
# [2] = Stability of FMdC solution 10 mg/mL in various buffer systems at 40° C. (Example 4, HPLC); assay type: physicochemical; conditions: for pH: 10 mg/mL
# Protocol: In this study the stability of FMdC solution 10 mg/mL was studied in various buffer systems. FMdC solutions were made up and pH adjusted to target with sodium hydroxide. Solution samples were placed in stoppered glass vials and stored at 40° C. FMdC content was assessed at various times using the HPLC method described in Example 3 above.
# [3] = Stability of tezacitabine in unbuffered aqueous solution; assay type: physicochemical
# [4] = Degradation products in HPLC chromatograms of degraded samples; assay type: physicochemical
# Source text: The major degradation product of tezacitabine seen in HPLC chromatograms of degraded samples is cytosine. Based on this, but without limitation to any specific theory, the mechanism of degradation is believed to involve hydrolysis of the glycosidic bond between the […] ring and the sugar ring. This hydrolysis reaction is believed to occur rapidly at low pH but much less rapidly at high pH. The liberated sugar moiety is believed subsequently to undergo rapid degradation to a spectrum of products, one or more of which are highly acidic as well as being colored. The cytosine may also further degrade to acid-producing and/or color-producing species. The degradation, therefore, has a propensity to become autocatalytic, as the liberated acid species would tend to lower the pH, thus accelerating the degradation of previously undegraded tezacitabine molecules.
# Degradation of tezacitabine can readily be monitored by the use of high pressure liquid chromatography (HPLC) methods which separate the drug from its degradation products and quantitate the amount of intact drug remaining in the solution. Typically such studies are performed by filling aliquots of various tezacitabine solutions into appropriate containers (e.g., stoppered glass vials or sealed ampoules) and storing these samples for various periods of time under various storage conditions. […]
# [5] = human patients with solid tumors, Phase I clinical trials; cited from earlier work
# [6] = FMdC 2 mg/mL, 100 mM sodium phosphate pH 9, 25° C., 0 mon
# [7] = FMdC 2 mg/mL, 100 mM sodium phosphate pH 9, 25° C., 6 mon
# [8] = FMdC 2 mg/mL, 100 mM sodium phosphate pH 9, 25° C., 9 mon
# [9] = FMdC 2 mg/mL, 100 mM sodium phosphate pH 9, 25° C., 20 mon
# [10] = FMdC 2 mg/mL, 100 mM sodium phosphate pH 9, 40° C., 0 mon
# [11] = FMdC 2 mg/mL, 100 mM sodium phosphate pH 9, 40° C., 3 mon
# [12] = FMdC 2 mg/mL, 100 mM sodium phosphate pH 9, 40° C., 6 mon
# [13] = FMdC 2 mg/mL, 100 mM sodium phosphate pH 9, 40° C., 9 mon
# [14] = FMdC 2 mg/mL, 100 mM sodium phosphate pH 9, 50° C., 0 mon
# [15] = FMdC 2 mg/mL, 100 mM sodium phosphate pH 9, 50° C., 0.5 mon
# [16] = FMdC 2 mg/mL, 100 mM sodium phosphate pH 9, 50° C., 1.0 mon
# [17] = FMdC 2 mg/mL, 100 mM sodium phosphate pH 9, 50° C., 2.0 mon
# [18] = FMdC 2 mg/mL, 100 mM sodium phosphate pH 9, 50° C., 3.0 mon
# [19] = FMdC 10 mg/mL, 100 mM sodium phosphate pH 9, 25° C., 0 mon
# [20] = FMdC 10 mg/mL, 100 mM sodium phosphate pH 9, 25° C., 2.8 mon
# [21] = FMdC 10 mg/mL, 100 mM sodium phosphate pH 9, 25° C., 4.0 mon
# [22] = FMdC 10 mg/mL, 100 mM sodium phosphate pH 9, 25° C., 6.5 mon
# [23] = FMdC 10 mg/mL, 100 mM sodium phosphate pH 9, 25° C., 7.9 mon
# [24] = FMdC 10 mg/mL, 100 mM sodium phosphate pH 9, 25° C., 16 mon
# [25] = FMdC 10 mg/mL, 100 mM sodium phosphate pH 9, 25° C., 23 mon
# [26] = FMdC 10 mg/mL, 100 mM sodium phosphate pH 9, 40° C., 0 mon
# [27] = FMdC 10 mg/mL, 100 mM sodium phosphate pH 9, 40° C., 2.0 mon
# [28] = FMdC 10 mg/mL, 100 mM sodium phosphate pH 9, 40° C., 3.0 mon
# [29] = FMdC 10 mg/mL, 100 mM sodium phosphate pH 9, 40° C., 3.7 mon
# [30] = FMdC 10 mg/mL, 100 mM sodium phosphate pH 9, 40° C., 4.1 mon
# [31] = FMdC 10 mg/mL, 100 mM sodium phosphate pH 9, 50° C., 0 mon
# [32] = FMdC 10 mg/mL, 100 mM sodium phosphate pH 9, 50° C., 0.3 mon
# [33] = FMdC 10 mg/mL, 100 mM sodium phosphate pH 9, 50° C., 0.7 mon
# [34] = FMdC 10 mg/mL, 100 mM sodium phosphate pH 9, 50° C., 0.9 mon
# [35] = FMdC 10 mg/mL, 100 mM sodium phosphate pH 9, 50° C., 1.4 mon
# [36] = FMdC 10 mg/mL, 100 mM sodium phosphate pH 9, 50° C., 2.1 mon
smiles,measurement,setting,value
"Nc1ccn([C@@H]2O[C@H](CO)[C@@H](O)/C2=C\F)c(=O)n1 [FMdC, (E)-2′-deoxy-2′-(fluoromethylene)cytidine]",stability in words,"[1]; 25° C., 2 and 10 mg/mL in 100 mM sodium phosphate pH 9",stable for over eighteen months
same,FMdC,[1]; [6],100.0 % of initial
same,pH,[1]; [6],9.18
same,FMdC,[1]; [7],100.0 % of initial
same,pH,[1]; [7],9.00
same,FMdC,[1]; [8],100.5 % of initial
same,pH,[1]; [8],9.03
same,FMdC,[1]; [9],100.0 % of initial
same,pH,[1]; [9],9.00
same,FMdC,[1]; [10],100.0 % of initial
same,pH,[1]; [10],9.18
same,FMdC,[1]; [11],97.0 % of initial
same,pH,[1]; [11],8.89
same,FMdC,[1]; [12],92.5 % of initial
same,pH,[1]; [12],8.55
same,FMdC,[1]; [13],88.4 % of initial
same,pH,[1]; [13],8.44
same,FMdC,[1]; [14],100.0 % of initial
same,pH,[1]; [14],9.18
same,FMdC,[1]; [15],100.0 % of initial
same,pH,[1]; [15],8.84
same,FMdC,[1]; [16],97.4 % of initial
same,pH,[1]; [16],8.84
same,FMdC,[1]; [17],88.7 % of initial
same,pH,[1]; [17],8.39
same,FMdC,[1]; [18],80.4 % of initial
same,pH,[1]; [18],8.16
same,FMdC,[1]; [19],100.0 % of initial
same,pH,[1]; [19],9.29
same,FMdC,[1]; [20],98.9 % of initial
same,pH,[1]; [20],9.25
same,FMdC,[1]; [21],100.4 % of initial
same,pH,[1]; [21],9.17
same,FMdC,[1]; [22],99.3 % of initial
same,pH,[1]; [22],9.09
same,FMdC,[1]; [23],98.1 % of initial
same,pH,[1]; [23],9.06
same,FMdC,[1]; [24],97.3 % of initial
same,pH,[1]; [24],8.73
same,FMdC,[1]; [25],97.1 % of initial
same,pH,[1]; [25],8.74
same,FMdC,[1]; [26],100.0 % of initial
same,pH,[1]; [26],9.29
same,FMdC,[1]; [27],98.1 % of initial
same,pH,[1]; [27],8.60
same,FMdC,[1]; [28],95.8 % of initial
same,pH,[1]; [28],8.40
same,FMdC,[1]; [29],96.9 % of initial
same,pH,[1]; [29],8.19
same,FMdC,[1]; [30],94.9 % of initial
same,pH,[1]; [30],8.08
same,FMdC,[1]; [31],100.0 % of initial
same,pH,[1]; [31],9.29
same,FMdC,[1]; [32],99.6 % of initial
same,pH,[1]; [32],8.75
same,FMdC,[1]; [33],94.4 % of initial
same,pH,[1]; [33],8.24
same,FMdC,[1]; [34],89.5 % of initial
same,pH,[1]; [34],7.91
same,FMdC,[1]; [35],82.0 % of initial
same,pH,[1]; [35],7.52
same,FMdC,[1]; [36],67.4 % of initial
same,pH,[1]; [36],7.01
same,pH,"[2]; 20 mM TRIS, 0 mon",9.42
same,pH,"[2]; 20 mM TRIS, 1 mon",9.24
same,pH,"[2]; 20 mM TRIS, 2 mon",9.05
same,pH,"[2]; 20 mM TRIS, 3 mon",8.89
same,pH,"[2]; 20 mM TRIS, 4 mon",8.58
same,pH,"[2]; 20 mM glycine, 0 mon",9.60
same,pH,"[2]; 20 mM glycine, 1 mon",9.32
same,pH,"[2]; 20 mM glycine, 2 mon",9.24
same,pH,"[2]; 20 mM glycine, 3 mon",9.11
same,pH,"[2]; 20 mM glycine, 4 mon",8.86
same,pH,"[2]; 20 mM sodium phosphate, 0 mon",9.36
same,pH,"[2]; 20 mM sodium phosphate, 1 mon",8.32
same,pH,"[2]; 20 mM sodium phosphate, 2 mon",7.76
same,pH,"[2]; 20 mM sodium phosphate, 3 mon",7.72
same,pH,"[2]; 20 mM sodium phosphate, 4.7 mon",4.65
same,pH,"[2]; 100 mM sodium phosphate, 0 mon",9.44
same,pH,"[2]; 100 mM sodium phosphate, 1 mon",9.14
same,pH,"[2]; 100 mM sodium phosphate, 2 mon",8.69
same,pH,"[2]; 100 mM sodium phosphate, 3 mon",8.47
same,pH,"[2]; 100 mM sodium phosphate, 4 mon",8.18
same,pH,"[2]; 100 mM sodium phosphate, 6 mon",7.80
same,pH,"[2]; 100 mM sodium phosphate, 9 mon",7.14
same,comparison of buffers in stabilizing FMdC,[2]; same buffer concentrations (20 mM),glycine and TRIS are superior to phosphate
same,pH before storage,"[3]; 35° C., start",about 7.2
same,loss of drug (HPLC),"[3]; 35° C., within 4 days",greater than 90%
same,pH after storage,"[3]; 35° C., within 4 days",about 4.3
same,"colour change of solution, indicative of degradation","[3]; room temperature, within five days",changes from colorless to yellow to light brown
same,major degradation product,[4],cytosine
same,tolerability,[5],well tolerated
